This is an account of results in patent EP1282604B1, “SUBSTITUTED CAPROLACTAM CARBONATES AND ETHERS AND THEIR USE AS ANTI-TUMOR AGENTS” (Novartis AG, priority 2000, dated 2001).

Structures are written as SMILES.

In data set [1] the test system is MDA-MB-435 human breast carcinoma. Put plainly: Anchorage Dependent Growth Monolayer Assay (ADGMA), MTS readout. It counts as cell-based. To be noted: Homo sapiens, 72 h; 3-day exposure, MDA-MB-435 cells; read-out: IC50 values (average ± S.D.) MDA-MB-435. The text has this: (§1) As indicated above, all of the compounds of formula I, and their corresponding pharmaceutically acceptable acid addition salts, are anti-tumor agents and are, therefore, useful in inhibiting the growth of various lymphomas, sarcomas, carcinomas, myelomas, and leukemia cell lines. […] This assay was adapted from the 60 cell line assay used by the National Cancer Institute (NCl) with the following modifications: 1) cell lines representative for the important tumor types, viz., MDA-MB-435 human breast, A549 non-small cell lung, H1299 lung, HCT-116 colon and PC-3 prostate carcinomas, and U2OS osteosarcomas were utilized; and 2) a tetrazolium derivative, viz., 3-(4,5-dimethylthiazol-2-yl)-5-(3-carboxymethoxyphenyl)-2-(4-sulfophenyl)-2H-tetrazolium, inner salt (MTS), was utilized to determine cell density.
(§2) The ADGMA compares the number of viable cells following a 3-day exposure to a test compound relative to a number of cells present at the time the test compound was added. […] The absorbance at 490 nm (A490) of the formazan derivative is proportional to the number of viable cells. The IC50 for a test compound is the concentration of compound required to reduce the final cell number to 50% of the final control cell number. If cell proliferation is inhibited, the assay further defines compounds as cytostatic (cell number after 3-day compound incubation >cell number at time of compound addition) or cytotoxic (cell number after 3-day compound incubation <cell number at time of compound addition).
(§3) The MDA-MB-435 human breast carcinoma and the A549 non-small cell lung carcinoma lines were obtained from the American Type Culture Collection (ATCC) and used between passages 4-20 following thawing. MDA-MB-435 human breast carcinoma and A549 non-small cell lung carcinoma cells were maintained and plated in DME/F12 medium containing 10% fetal bovine serum, 15 mM HEPES (pH=7.4), 100 units/mL penicillin, and 100 µg/mL streptomycin.
(§4) Cell lines are trypsinized and counted using a Coulter counter to determine plating densities. Cells are then plated in their respective maintenance media (100 µL/well) in 96 well plates at the following densities: MDA-MB-435 and U2OS, 3,000 cells/well; A549 and HCT-116, 700 cells/well; H1299, 1,000 cells/well; and PC-3, 2500 cells/well. The number of cells plates as determined in preliminary experiments, results in cell densities of 75-90% of confluency by 4 days after plating. Initial cell densities, assayed one day after plating, are roughly 0.15-0.20 absorbance units greater than the media blank. Ninety-six well plates are seeded on day 0 and the test compounds are added on day 1. A control plate is created for each cell line that receives media only in row A and cells in row B. One day following plating, test compounds are added (in a final volume of 100 µL) to the test plates. Control plates receive 10 µL MTS mixture (prepared fresh on day of addition to cell plates at a ratio of 10 µL of a 0.92 mg/mL solution of PMS to a 190 µL of a 2 mg/mL solution of MTS) and 100 µL media. A490 of control plates is read 4 h after MTS addition to determine initial cell density values for each cell line. Three days after addition of test compound, 10 µL/well of MTS mixture is added to the test plates and A490 is read 4 h later. A490 values for wells containing cells are corrected for media absorbance, then normalized to initial density readings to determine percent net growth. IC50 values are determined from graphs of percent net growth as a function of compound concentration. Percent net growth is calculated as (Cell + Drug A490 - Initial A490/Cell + Drug Vehicle A490 - Initial A490) x 100%.

Data set [2] concerns A549 non-small cell lung carcinoma. The description is as above. The data set is classed as cell-based, human. As to conditions: Homo sapiens, 72 h; 3-day exposure, A549 cells; read-out: IC50 values (average ± S.D.) A549.
Text: as §1, §2, §3, §4

A further data set relates to H1299 lung carcinoma. Described as above. The data set is classed as cell-based. To be noted: Homo sapiens, NCI-H1299, 72 h; 3-day exposure, H1299 cells; read-out: IC50 values (average ± S.D.) H1299.
Text: as §1, §2
(§5) The H1299 lung, HCT-116 colon, and PC-3 prostate carcinoma cell lines, and U2OS osteosarcoma cell line were obtained from the American Type Culture Collection (ATCC) and used between passages 4-20 following thawing. H1299 and HCT-116 cells were maintained in RPMI 1640 containing 10% FBS, 100 units/mL penicillin and 100 µg/mL streptomycin; PC-3 cells were maintained in Kahn's Modification containing 10% FBS, 100 units/mL penicillin and 100 µg/mL streptomycin; and U2OS cells were maintained in DMEM containing 10% FBS, 100 units/mL penicillin and 100 µg/mL streptomycin.
as §4

In another data set the test system is HCT-116 colon carcinoma. The data set is described as above. As to conditions: Homo sapiens, 72 h; 3-day exposure, HCT-116 cells; read-out: IC50 values (average ± S.D.) HCT-116. The data set is classed as cell-based.
Text: as §1, §2, §5, §4

A further data set deals with U2OS osteosarcoma. The description is as above. To be noted: Homo sapiens, 72 h; 3-day exposure, U2OS cells; read-out: IC50 values (average ± S.D.) U2OS. It counts as cell-based.
Text: as §1, §2, §5, §4

The subject of the next data set is A549 tumor xenografts. As to the kind of experiment: Human tumor xenograft growth inhibition in athymic nude mice. As to conditions: 5X/week for 2 weeks; for Δ MTV / %T/C: recorded on day 24; for %T/C: * = p<0.05. The data set is classed as in vivo. Here is the method: (§6) Utilizing this model, one can measure the ability of test compounds to inhibit the growth of human tumor xenografts growing subcutaneously (s.c.) in athymic nude mice. The histologic tumor type employed was MDA-MB-435 breast carcinoma for Ex.1 and 7 and A549 non-small cell lung carcinoma for Ex. 1-3.
A549 non-small cell lung carcinoma: Treatments were started 17 d post-implantation (1 x 10^7 cells/mouse), when a mean tumor volume of approximately 120 mm^3 was reached. Ex. 1-3 were administered iv on days 17-21 (followed by 2 d rest, then a second cycle of treatment on days 24-28). Total daily doses of 10 or 30 µmol/kg were administered as a single injection. Data in this table were recorded on day 24, 3 d after the last treatment of the first cycle. An asterisk (*) indicates p < 0.05 using a one-tailed Student's t-Test.
(§7) Toxicity was monitored by recording average group body weights twice weekly, and by daily observation of general health. Efficacy was monitored by taking measurements of tumor length, width, and depth weekly using digital calipers coupled to automated data collectors. Mean tumor volume (MTV) at initiation of therapy was subtracted from final MTV in order to express the actual tumor growth during treatment (A MTV). Anti-tumor activity was expressed as %T/C (A MTV of treated group ÷ Δ MTV of control group X100%). Statistical significance was evaluated using a one-tailed Student's t-test (p<0.05).
(In general: A xenograft is tissue or cells of one species grown in another, often human tumour cells in immunodeficient mice.)

In the next data set the test system is PC-3 prostate carcinoma. As to the kind of experiment: Anchorage Dependent Growth Monolayer Assay (ADGMA), MTS readout. It counts as cell-based. To be noted: Homo sapiens, 72 h; 3-day exposure, PC-3 cells; read-out: IC50 values (average ± S.D.) PC-3.
Text: as §1, §2, §5, §4

The test system of data set [3] is MDA-MB-435 tumor xenografts. Put plainly: Human tumor xenograft growth inhibition in athymic nude mice. It counts as in vivo. To be noted: 2 mg/kg iv, 3X/week for 3 weeks. Here is the method:
as §6
MDA-MB-435 human breast carcinoma: Treatments were started 15 d post implantation (3 x 10^6 cells/mouse), when a mean tumor volume of approximately 45 mm^3 was reached. Ex.1 and 7 were administered iv at three times per week for 3 weeks (days 15, 17, 20, 22, 24, 27, 29, and 31), at 3.3, 10, and 33 µmol/kg. Doxorubicin was administered iv at 2 mg/kg using the same schedule. Each data point represents tumor growth (mean ± SEM), or body weight (mean), with an initial group size of n = 8, from a representative experiment performed twice. An asterisk (*) indicates p < 0.05 using a one-tailed Student's t-test.
as §7

Usually IC50 stands for the point on the concentration scale where inhibition reaches its midpoint. On to `CO[C@@H](C(=O)N[C@H]1CC[C@@H](OC(=O)OCCc2ccccc2)CNC1=O)[C@H](O)[C@@H](O)[C@H](O)/C=C/C(C)(C)C` [Ex. 3, (2R, 3R, 4S, 5R, 6E)-3,4,5-trihydroxy-2-methoxy-8,8-dimethyl-N-[(3S, 6R)-hexahydro-2-oxo-6-([[2-phenylethoxy]carbonyl]oxy)-2H-azepin-3-yl]non-6-enonamide], for which the IC50 in data set [1] is 80 ± 30 nM; in data set [2], 132 ± 20 nM; with H1299 lung carcinoma, 330 ± 270 nM; in the data set on HCT-116 colon carcinoma, 160 ± 30 nM; with U2OS osteosarcoma, 310 ± 40 nM. Moreover, the Dead/Total in the data set with A549 tumor xenografts (10 µmol/kg iv daily) and in the data set on A549 tumor xenografts (30 µmol/kg iv daily) was 0/8 in each case. The results for the “Δ MTV” value in the data set with A549 tumor xenografts (10 µmol/kg iv daily) and in the data set with A549 tumor xenografts (30 µmol/kg iv daily) were 106 mm^3 and 55 mm^3, respectively. In addition, the entries for the “%T/C” value in the data set on A549 tumor xenografts (10 µmol/kg iv daily) and in the data set with A549 tumor xenografts (30 µmol/kg iv daily) were 82% and 42* %, respectively.

Take `CO[C@@H](C(=O)N[C@H]1CC[C@@H](OC(=O)OCc2ccccc2)CNC1=O)[C@H](O)[C@@H](O)[C@H](O)/C=C/C(C)(C)C` [Ex. 4, (2R, 3R, 4S, 5R, 6E)-3,4,5-trihydroxy-2-methoxy-8,8-dimethyl-N-[(3S, 6R)-hexahydro-2-oxo-6-([[phenylmethoxy]carbonyl]oxy)-2H-azepin-3-yl]non-6-enonamide]: the IC50 turned out to be 130 ± 70 nM in data set [1]; 158 ± 16 nM in data set [2]; 170 ± 130 nM in the data set with H1299 lung carcinoma; 80 ± 10 nM with HCT-116 colon carcinoma; 80 nM in the data set on PC-3 prostate carcinoma; 250 ± 140 nM in the data set on U2OS osteosarcoma.

Turning to `COc1cccc2c1C(=O)c1c(O)c3c(c(O)c1C2=O)C[C@@](O)(C(=O)CO)C[C@@H]3O[C@H]1C[C@H](N)[C@H](O)[C@H](C)O1` [doxorubicin, reference compound], the IC50 came out at 400 ± 10 nM in data set [1]; 500 ± 160 nM in data set [2]; 430 ± 290 nM with H1299 lung carcinoma; 80 ± 60 nM in the data set with HCT-116 colon carcinoma; 330 ± 120 nM in the data set on PC-3 prostate carcinoma; 130 ± 30 nM with U2OS osteosarcoma. The Dead/Total in data set [3] is on record as 0/8. In addition, in data set [3], the “Δ MTV” value is 82 mm^3. Further, in data set [3] (* = p<0.05), the “%T/C” value was 46* %.
